Data as given in patent US5138069A (E. I. Du Pont de Nemours and Company, priority 1988, dated 1992).
Like-named read-outs stand apart in the source and are kept apart here.

How the values were obtained:
Renal Hypertensive Rats = assay: Antihypertensive effects in renal hypertensive rats; type: in vivo; details: Rattus norvegicus; for minimal effective dose at 100 mg/kg / minimal effective dose at 10 mg/kg: Table 25; for minimal effective dose at 100 mg/kg: 100 mg/kg or less; for minimal effective dose at 10 mg/kg: 10 mg/kg or less
Experimental: This procedure increases blood pressure by increasing renin production with consequent elevation of AII levels. Compounds are administered orally at 100 mg/kg and/or intravenously via a cannula in the jugular vein at 10 mg/kg. Arterial blood pressure is continuously measured directly through a carotid artery cannula and recorded using a pressure transducer and a polygraph. Blood pressure levels after treatment are compared to pretreatment levels to determine the antihypertensive effects of the compounds (See Table 25).
(§1) Compounds listed in Table 26 were tested in the same manner as described for Table 25, except that in the test for antihypertensive effects in renal hypertensive rats, the compounds were administered orally at 30 mg/kg and intravenously at 3 mg/kg.

AII receptor = assay: Angiotensin II receptor binding (displacement of 3H-AII); details: read-out: Angiotensin II Receptor Binding IC50, rat adrenal cortical microsomes, 2 nM 3H-AII, 1 hour, room temperature
Experimental: The assay was carried out according to the method described by [Glossmann et al., J. Biol. Chem., 249, 825 (1974)], but with some modifications. The reaction mixture contained rat adrenal cortical microsomes (source of AII receptor) in Tris buffer and 2 nM of ^3 H-AII with or without potential AII antagonist. This mixture was incubated for 1 hour at room temperature and the reaction was subsequently terminated by rapid filtration and rinsing through glass micro-fibre filter. Receptor-bound ^3 H-AII trapped in filter was quantitated by scintillation counting.
as §1

[1] = Table 25, tested as sodium salt
[2] = tested as sodium salt, intravenous

SMILES | IC50 (AII receptor; [1]) | IC50 (AII receptor; Table 25) | minimal effective dose at 100 mg/kg (Renal Hypertensive Rats; tested as sodium salt, oral) | minimal effective dose at 10 mg/kg (Renal Hypertensive Rats; [2]) | minimal effective dose at 10 mg/kg (Renal Hypertensive Rats; intravenous) | minimal effective dose at 100 mg/kg (Renal Hypertensive Rats; oral) | also measured
CCCCc1nc(Cl)c(Cc2nnn[nH]2)n1Cc1ccc(-c2nnn[nH]2)cc1 [Example 27, 2-Butyl-4-chloro-5-[(1H-tetrazol-5-yl)methyl]-1-[4-(1H-tetrazol-5-yl)benzyl]imidazole] | 1.2 µM |  | < 100 mg/kg | < 10 mg/kg |  |  | 
CCCCc1nc(Cl)c(CC(=O)OC)n1Cc1ccc(N2C(=O)c3ccccc3C2=O)cc1 [Example 29, Methyl 2-butyl-4-chloro-1-(4-N-phthalimidobenzyl)imidazole-5-acetate] |  | 3.1 µM |  |  | < 10 mg/kg | > 100 mg/kg | 
CCCCc1nc(Cl)c(CC(=O)OC)n1Cc1ccc(NC(=O)c2ccccc2NS(=O)(=O)C(F)(F)F)cc1 [Example 30, Methyl 2-butyl-4-chloro-1-[4-((N-trifluoromethanesulfonyl)anthranilamido)benzyl]-imidazole-5-acetate] | 0.39 µM |  | < 100 mg/kg | < 10 mg/kg |  |  | 
CCCCc1nc(Cl)c(CC(=O)OC)n1Cc1ccc(NC(=O)c2cccc(C)c2NS(=O)(=O)C(F)(F)F)cc1 [Example 36] | 0.19 µM |  | > 100 mg/kg | < 10 mg/kg |  |  | 
CCCCc1nc(Cl)c(CC(=O)OC)n1Cc1ccc(NC(=O)c2ccccc2NS(C)(=O)=O)cc1 [Example 51] |  | 2.3 µM |  |  | > 100 mg/kg | > 100 mg/kg | 
CCc1nccn1Cc1ccc(NC(=O)c2ccccc2NS(=O)(=O)C(F)(F)F)cc1 [Example 57] |  | 4.9 µM |  |  | < 10 mg/kg | > 100 mg/kg | 
CC(C)c1nccn1Cc1ccc(NC(=O)c2ccccc2NS(=O)(=O)C(F)(F)F)cc1 [Example 58] |  | 8.3 µM |  |  | < 10 mg/kg | > 100 mg/kg | 
CCCCc1nccn1Cc1ccc(NC(=O)c2ccccc2C(=O)O)cc1 [Example 64] |  | 0.62 µM |  |  | < 10 mg/kg | > 100 mg/kg | 
CCCCCc1nccn1Cc1ccc(NC(=O)c2ccccc2C(=O)O)cc1 [Example 65] |  | 0.24 µM |  |  | < 10 mg/kg | > 100 mg/kg | 
CCCCCCc1nccn1Cc1ccc(NC(=O)c2ccccc2C(=O)O)cc1 [Example 66] |  | 0.35 µM |  |  | < 10 mg/kg | > 100 mg/kg | 
CCCCCCCc1nccn1Cc1ccc(NC(=O)c2ccccc2C(=O)O)cc1 [Example 67] |  | 1.1 µM |  |  | < 10 mg/kg | > 100 mg/kg | 
CSc1ncc(CO)n1Cc1ccc(NC(=O)c2ccccc2C(=O)O)cc1 [Example 72, 1-[4-(2-Carboxybenzamido)-benzyl]-5-hydroxymethyl-2-(methylthio)-imidazole] |  | 6.5 µM |  |  | < 10 mg/kg | > 100 mg/kg | 
CCCCc1nc(Cl)c(COC)n1Cc1ccc(C(=O)Nc2ccccc2C(=O)O)cc1 [Example 78] | 8 µM |  | < 100 mg/kg | < 10 mg/kg |  |  | 
CCCCc1nc(Cl)c(COC)n1Cc1ccc(C(=O)Nc2nnn[nH]2)cc1 [Example 79] | 0.5 µM |  | > 100 mg/kg | < 10 mg/kg |  |  | 
CCCCc1nc(Cl)c(CO)n1Cc1ccc(-c2cccc(C(=O)OCOC(=O)C(C)(C)C)c2)cc1 [Example 88, 1-[(3'-Trimethylacetoxymethoxycarbonylbiphenyl-4-yl)methyl]-2-butyl-4-chloro-5-hydroxymethylimidazole] |  | 1.3 µM |  |  |  | < 100 mg/kg | 
CCCCc1nc(C(F)(F)F)c(CO)n1Cc1ccc(-c2ccccc2C(=O)O)cc1 [Example 92, 1-[(2'-carboxybiphenyl-4-yl)-methyl]-2-butyl-5-hydroxymethyl-4-trifluoromethylimidazole] |  | 0.062 µM |  |  | < 10 mg/kg |  | 
CCCCc1nc(C(F)(F)C(F)(F)F)c(CO)n1Cc1ccc(-c2ccccc2C(=O)O)cc1 [Example 92A, 1-[(2'-carboxybiphenyl-4-yl)methyl]-2-butyl-5-hydroxymethyl-4-pentafluoroethylimidazole] |  |  |  |  |  |  | minimal effective dose at 3 mg/kg (Renal Hypertensive Rats; Table 26, intravenous, 3 mg/kg): < 3 mg/kg; minimal effective dose at 30 mg/kg (Renal Hypertensive Rats; Table 26, oral, 30 mg/kg): < 30 mg/kg; IC50 (AII receptor; Table 26): 0.04 µM

Second part, led by results:

IC50 (AII receptor; [1]) | IC50 (AII receptor; Table 25) | SMILES | minimal effective dose at 100 mg/kg (Renal Hypertensive Rats; tested as sodium salt, oral) | minimal effective dose at 10 mg/kg (Renal Hypertensive Rats; [2]) | minimal effective dose at 10 mg/kg (Renal Hypertensive Rats; intravenous) | minimal effective dose at 100 mg/kg (Renal Hypertensive Rats; oral) | also measured
3.8 µM |  | CCCCc1nc(Cl)c(Cc2nnn[nH]2)n1Cc1cccc(-c2nnn[nH]2)c1 [Example 26, 2-Butyl-4-chloro-5-[(1H-tetrazol-5-yl)methyl]-1-[3-(1H-tetrazol-5-yl)benzyl]imidazole] | > 100 mg/kg |  |  |  | 
3.4 µM |  | CCCCc1nc(Cl)c(CC(=O)OC)n1Cc1ccc(NC(=O)c2cc(I)ccc2NS(=O)(=O)C(F)(F)F)cc1 [Example 35] | < 100 mg/kg | < 10 mg/kg |  |  | 
 | 0.81 µM | CCCCc1nc(Cl)c(CC(=O)OC)n1Cc1ccc(NC(=O)c2cc(C)ccc2NS(=O)(=O)C(F)(F)F)cc1 [Example 53A] |  |  | > 100 mg/kg | > 100 mg/kg | 
 | 0.36 µM | CCCCc1nc(Cl)c(CO)n1Cc1ccc(NC(=O)c2ccccc2NS(=O)(=O)C(F)(F)F)cc1 [Example 53B] |  |  | < 10 mg/kg |  | 
 | 0.21 µM | CCCCc1ncc(CO)n1Cc1ccc(NC(=O)c2ccccc2NS(=O)(=O)C(F)(F)F)cc1 [Example 53C] |  |  | < 10 mg/kg |  | 
 | 7.2 µM | CCCCCCCc1nc(Cl)c(CO)n1Cc1ccc(NC(=O)c2ccccc2NS(=O)(=O)C(F)(F)F)cc1 [Example 54, 4-Chloro-2-heptyl-5-hydroxymethyl-1-[4-((N-trifluoromethanesulfonyl)-anthranilamido)benzyl]imidazole] |  |  | < 10 mg/kg |  | 
 | 0.93 µM | COCCc1nc(Cl)c(CO)n1Cc1ccc(NC(=O)c2ccccc2C(=O)O)cc1 [Example 55, 1-[4-(2-Carboxybenzamido)-benzyl]-4-chloro-5-hydroxymethyl-2-(2-methoxyethyl)imidazole] |  |  | < 10 mg/kg | > 100 mg/kg | 
 | 3 µM | CCCCc1nccn1Cc1ccc(NC(=O)c2ccccc2NS(=O)(=O)C(F)(F)F)cc1 [Example 59] |  |  | > 100 mg/kg | > 100 mg/kg | 
3.7 µM |  | CCCc1nccn1Cc1ccc(NC(=O)c2ccccc2C(=O)O)cc1 [Example 63] | > 100 mg/kg |  |  |  | 
 | 2.5 µM | COc1ccc(Cc2nccn2Cc2ccc(NC(=O)c3ccccc3C(=O)O)cc2)cc1 [Example 70] |  |  | < 10 mg/kg | > 100 mg/kg | 
7.6 µM |  | CCCCc1nc(C#N)c(C#N)n1Cc1ccc(NC(=O)c2ccccc2NS(=O)(=O)C(F)(F)F)cc1 [Example 75, 2-Butyl-4,5-dicyano-1-[4-((N-trifluoromethanesulfonyl)anthranilamido)-benzyl]imidazole] | < 100 mg/kg | < 10 mg/kg |  |  | 
2.7 µM |  | CCCCc1nc(Cl)c(CC(=O)OC)n1Cc1ccc(N(Cc2ccccc2)C(=O)c2ccccc2NS(=O)(=O)C(F)(F)F)cc1 [Example 76, Methyl 2-butyl-1-[4-(N-benzyl-N-(2-(trifluoromethanesulfonamido)benzoyl)-amino)benzyl]-4-chloroimidazole-5-acetate] | > 100 mg/kg | < 10 mg/kg |  |  | 
5.7 µM |  | CCCCc1nc(Cl)c(COC)n1Cc1ccc(N(C)C(=O)c2c(Cl)ccc(Cl)c2C(=O)O)cc1 [Example 77, 2-n-Butyl-4-chloro-5-methoxymethyl-1-[4-(N-methyl-2-carboxy-3,6-dichlorobenzamid)benzyl]imidazole] | > 100 mg/kg | > 100 mg/kg |  |  | 
0.5 µM |  | CCCCc1nc(Cl)c(COC)n1Cc1ccc(C(=O)Nc2cccc(C)c2C(=O)O)cc1 [Example 80] | < 100 mg/kg | < 10 mg/kg |  |  | 
0.57 µM |  | CCCCc1nc(Cl)c(COC)n1Cc1ccc(C(=O)Nc2ccccc2-c2nnn[nH]2)cc1 [Example 81] | > 100 mg/kg | > 100 mg/kg |  |  | 
0.02 µM |  | CCCCc1nc(Cl)c(COC)n1Cc1ccc(-c2ccccc2-c2nnn[nH]2)cc1 [Example 90] | < 100 mg/kg | < 10 mg/kg |  |  | 
 | 0.26 µM | CCCCc1nc([N+](=O)[O-])c(CO)n1Cc1ccc(-c2ccccc2C(=O)O)cc1 [Example 91, 1-[(2'-carboxybiphenyl-4-yl)-methyl]-2-butyl-5-hydroxymethyl-4-nitroimidazole] |  |  | < 10 mg/kg | > 100 mg/kg | 
 | 0.28 µM | CCCCc1nc(Cl)c(CO)n1Cc1ccc(-c2ccccc2C(=O)O)cc1 [Example 94, 2-butyl-1-[(2'-carboxybiphenyl-4-yl)methyl]-4-chloro-5-hydroxymethylimidazole] |  |  | < 10 mg/kg | < 100 mg/kg | 
